Values of other authors as cited in US20170095445A1 (priority 2012, published 2017).
Residues, ends and D or L forms follow the SMILES beside them.

Test system: asthma induced by sensitization and challenge with ovalbumin
Settings: mouse, in vivo

CC(=O)NC(CS)C(=O)N1CCCC1C(=O)NC(CS)C(N)=O (stereo not drawn) [R-901, 1-(2-acetamido-3-mercaptopropanoyl)-N-(1-amino-3-mercapto-1-oxopropan-2-yl) pyrrolidine-2-carboxamide] (Ac-Cys-Pro-Cys-NH2; configuration not given here)
efficacy in murine model of asthma: efficacious
